Laboratory results: patent US6737383B1, “Herbicidal oxadiazolidines” (priority 1999, dated 2004)

Columns and labels:
bedstraw = experiment: Test B pre/postemergence bedstraw; format: in vivo, Galium aparine
Outline: (§1)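 Response is a visual 0-to-10 score relative to untreated plants, where 0 means no effect and 10 means complete control, taken twelve to sixteen days after application. Treatments went onto soil at planting and onto foliage of 1- to 4-leaf plants, using a surfactant-containing non-phytotoxic solvent.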

blackgrass = experiment: Test B pre/postemergence blackgrass; format: in vivo, Alopecurus myosuroides
Outline: as §1

surinam grass = experiment: Test B pre/postemergence surinam grass; format: in vivo, Brachiaria decumbens
Outline: as §1

cocklebur = experiment: Test B pre/postemergence cocklebur; format: in vivo, Xanthium strumarium
Outline: as §1

corn = experiment: Test B pre/postemergence corn; format: in vivo, Zea mays
Outline: as §1

morningglory = experiment: Test B pre/postemergence morningglory; format: in vivo, Ipomoea hederacea
Outline: as §1

pigweed = experiment: Test B pre/postemergence pigweed; format: in vivo, Amaranthus retroflexus
Outline: as §1

rape = experiment: Test B pre/postemergence rape; format: in vivo, Brassica napus
Outline: as §1

velvetleaf = experiment: Test B pre/postemergence velvetleaf; format: in vivo, Abutilon theophrasti
Outline: as §1

wheat = experiment: Test B pre/postemergence wheat; format: in vivo, Triticum aestivum
Outline: as §1

wild oat = experiment: Test B pre/postemergence wild oat; format: in vivo, Avena fatua
Outline: as §1

purple nutsedge = experiment: Test B pre/postemergence purple nutsedge; format: in vivo, Cyperus rotundus
Outline: as §1

rice = experiment: Test B flood test rice; format: in vivo, Oryza sativa
Outline: (§2)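 Flood test on plants grown to the 2-leaf stage; treated plants kept in greenhouse twelve to sixteen days, then visually rated against controls on a 0 (no effect) to 10 (complete control) scale.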

smallflower flatsedge = experiment: Test B flood test smallflower flatsedge; format: in vivo, Cyperus difformis
Outline: as §2

duck salad = experiment: Test B flood test duck salad; format: in vivo, Heteranthera limosa
Outline: as §2

bamyardgrass = experiment: Test B flood test barnyardgrass; format: in vivo, Echinochloa crus-galli
Outline: as §2

[1] = Preemergence, Rate 62 g/ha, scale of 0 to 10 where 0 is no effect and 10 is complete control
[2] = Preemergence, Rate 500 g/ha, scale of 0 to 10 where 0 is no effect and 10 is complete control
[3] = Rate 62 g/ha, Postemergence, scale 0 to 10 (0 no effect, 10 complete control)
[4] = Rate 125 g/ha, Postemergence, scale of 0 to 10 where 0 is no effect and 10 is complete control
[5] = Preemergence, Rate 250 g/ha, scale of 0 to 10 where 0 is no effect and 10 is complete control
[6] = Rate 250 g/ha, Postemergence, scale of 0 to 10 where 0 is no effect and 10 is complete control
[7] = Rate 500 g/ha, Postemergence, scale 0 to 10, 0 no effect, 10 complete control
[8] = Rate 62 g/ha, headed Pre-emergence (flood test species), scale 0 to 10 (0 no effect, 10 complete control)
[9] = Rate 125 g/ha, Pre-emergence, flood test species, scale 0 to 10 where 0 is no effect and 10 is complete control
[10] = Rate 250 g/ha, Pre-emergence, flood-test species, scale 0 to 10, 0 is no effect, 10 is complete control
[11] = Rate 500 g/ha, Pre-emergence, flood test species, scale 0 to 10 (0 no effect, 10 complete control)

## CC(C)N(C(=O)n1oc(=O)n(Cc2nnsc2Cl)c1=O)c1ccc(F)cc1F [Compound 320]
bedstraw; [1]
  Bedstraw plant response rating: 0
bedstraw; [2]
  Bedstraw plant response rating: 0
bedstraw; [3]
  Bedstraw plant response rating: 0
bedstraw; [4]
  Bedstraw plant response rating: 0
blackgrass; [1]
  Blackgrass plant response rating: 0
blackgrass; Preemergence, Rate 125 g/ha
  Blackgrass plant response rating (0 to 10 scale): 2
blackgrass; [5]
  Blackgrass plant response rating: 5
blackgrass; [2]
  Blackgrass plant response rating: 6
blackgrass; [3]
  Blackgrass plant response rating: 0
blackgrass; [4]
  Blackgrass plant response rating: 0
blackgrass; [6]
  Plant response rating, Blackgrass: 0
blackgrass; [7]
  Blackgrass plant response rating: 0
Surinam grass; [1]
  B. signalgrass plant response rating: 0
Surinam grass; Preemergence, Rate 125 g/ha
  B. signalgrass plant response rating (0 to 10 scale, 0 is no effect, 10 is complete control): 1
Surinam grass; [5]
  B. signalgrass plant response rating: 2
Surinam grass; [2]
  B. signalgrass plant response rating: 3
Surinam grass; [3]
  B. signalgrass plant response rating: 0
Surinam grass; [4]
  B. signalgrass plant response rating: 0
Surinam grass; [6]
  Plant response rating, B. signalgrass: 0
Surinam grass; [7]
  B. signalgrass plant response rating: 0
cocklebur; [1]
  Cocklebur plant response rating: 0
cocklebur; Preemergence, Rate 125 g/ha
  Cocklebur plant response rating (0 to 10 scale): 0
cocklebur; [2]
  Cocklebur plant response rating: 0
cocklebur; [3]
  Cocklebur plant response rating: 0
cocklebur; [4]
  Cocklebur plant response rating: 0
cocklebur; [6]
  Plant response rating, Cocklebur: 0
cocklebur; [7]
  Cocklebur plant response rating: 0
corn; [1]
  Corn plant response rating: 0
corn; Preemergence, Rate 125 g/ha
  Corn plant response rating (0 to 10 scale): 0
corn; [5]
  Corn plant response rating: 0
corn; [2]
  Corn plant response rating: 0
corn; [3]
  Corn plant response rating: 0
corn; [4]
  Corn plant response rating: 0
corn; [6]
  Plant response rating, Corn: 0
corn; [7]
  Corn plant response rating: 0
morningglory; [1]
  Morningglory plant response rating: 0
morningglory; Preemergence, Rate 125 g/ha
  Morningglory plant response rating (0 to 10 scale): 0
morningglory; [5]
  Morningglory plant response rating: 0
morningglory; [2]
  Morningglory plant response rating: 0
morningglory; [3]
  Morningglory plant response rating: 1
morningglory; [4]
  Morningglory plant response rating: 1
morningglory; [6]
  Plant response rating, Morningglory: 3
pigweed; [1]
  Redroot pigweed plant response rating: 0
pigweed; Preemergence, Rate 125 g/ha
  Redroot pigweed plant response rating (0 to 10 scale): 0
pigweed; [5]
  Redroot pigweed plant response rating: 0
pigweed; [2]
  Redroot pigweed plant response rating: 0
pigweed; [3]
  Redroot pigweed plant response rating: 3
pigweed; [4]
  Redroot pigweed plant response rating: 6
pigweed; [6]
  Plant response rating, Redroot pigweed: 6
rape; [1]
  Rape plant response rating: 0
rape; Preemergence, Rate 125 g/ha
  Rape plant response rating (0 to 10 scale): 0
rape; [5]
  Rape plant response rating: 0
rape; [2]
  Rape plant response rating: 0
rape; [3]
  Rape plant response rating: 0
rape; [4]
  Rape plant response rating: 3
rape; [6]
  Plant response rating, Rape: 3
velvetleaf; [1]
  Velvetleaf plant response rating: 0
velvetleaf; Preemergence, Rate 125 g/ha
  Velvetleaf plant response rating (0 to 10 scale): 0
velvetleaf; [5]
  Velvetleaf plant response rating: 0
velvetleaf; [2]
  Velvetleaf plant response rating: 0
velvetleaf; [3]
  Velvetleaf plant response rating: 0
velvetleaf; [4]
  Velvetleaf plant response rating: 0
velvetleaf; [6]
  Plant response rating, Velvetleaf: 0
wheat; [1]
  Wheat plant response rating: 0
wheat; Preemergence, Rate 125 g/ha
  Wheat plant response rating (0 to 10 scale): 0
wheat; [5]
  Wheat plant response rating: 0
wheat; [2]
  Wheat plant response rating: 0
wheat; [3]
  Wheat plant response rating: 0
wheat; [4]
  Wheat plant response rating: 0
wheat; [6]
  Plant response rating, Wheat: 0
Wild oat; [1]
  Wild oats plant response rating: 0
Wild oat; Preemergence, Rate 125 g/ha
  Wild oats plant response rating (0 to 10 scale): 0
Wild oat; [5]
  Wild oats plant response rating: 0
Wild oat; [2]
  Wild oats plant response rating: 0
Wild oat; [3]
  Wild oats plant response rating: 0
Wild oat; [4]
  Wild oats plant response rating: 0
Wild oat; [6]
  Plant response rating, Wild oats: 0
Purple nutsedge; [1]
  Nutsedge plant response rating: 0
Purple nutsedge; Preemergence, Rate 125 g/ha
  Nutsedge plant response rating (0 to 10 scale): 0
Purple nutsedge; [5]
  Nutsedge plant response rating: 0
Purple nutsedge; [2]
  Nutsedge plant response rating: 0
Purple nutsedge; [3]
  Nutsedge plant response rating: 0
Purple nutsedge; [4]
  Nutsedge plant response rating: 0
Purple nutsedge; [6]
  Plant response rating, Nutsedge: 0
rice; [8]
  Rice plant response rating: 0
rice; [9]
  Rice plant response rating: 0
rice; [10]
  Rice plant response rating: 0
rice; [11]
  Rice plant response rating: 0
Smallflower flatsedge; [8]
  S. Flatsedge plant response rating: 0
Smallflower flatsedge; [9]
  S. Flatsedge plant response rating: 0
Smallflower flatsedge; [10]
  S. Flatsedge plant response rating: 0
Smallflower flatsedge; [11]
  S. Flatsedge plant response rating: 0
Duck salad; [8]
  Ducksalad plant response rating: 0
Duck salad; [9]
  Ducksalad plant response rating: 0
Duck salad; [10]
  Ducksalad plant response rating: 0
Duck salad; [11]
  Ducksalad plant response rating: 0
bamyardgrass; [8]
  Barnyardgrass plant response rating: 0
bamyardgrass; [9]
  Barnyardgrass plant response rating: 0
bamyardgrass; [10]
  Barnyardgrass plant response rating: 0
bamyardgrass; [11]
  Barnyardgrass plant response rating: 0
